Experiments:
[1] = system: Proliferating Cell Nuclear Antigen (PCNA) in RAW264.7 cells; test: Western blot for proliferating cell nuclear antigen; assay type: cell-based, murine; conditions: 1-1000 nM; EC0565 2 h treatment and 48 h chase, everolimus 48 h
[2] = system: rats with adjuvant-induced arthritis (AIA); test: Adjuvant-induced arthritis (AIA) model
Method: Female Lewis rats were fed a folate-deficient diet (Harlan Teklad, Indianapolis, Ind.) for 9-10 days prior to arthritis induction. The adjuvant-induced arthritis (AIA) was induced by intradermal inoculation (at the base of tail) of 0.5 mg of heat-killed Mycobacteria butyricum (BD Diagnostic Systems, Sparks, Md.) in 100 μL light mineral oil (Sigma). Ten days after arthritis induction, paw edema in rats was assessed using a modified arthritis scoring system: 0=no arthritis; 1=swelling in one type of joint; 2=swelling in two types of joint; 3=swelling in three types of joint; 4=swelling of the entire paw. A total score for each rat is calculated by summarizing the scores for each of the four paws, giving a maximum score of 16 for each rat. On Day 10 post arthritis induction, rats with a total arthritis score of ≥2 were removed from the study and the remaining rats were distributed evenly across the control and treatment groups (n=5 for all groups except that n=2-3 for healthy controls). All treatments started on Day 10 unless mentioned otherwise. […]
Rats with adjuvant arthritis were treated subcutaneously with EC0932 (250 nmol/kg) in the absence or presence of 500-fold excess of EC0923 (125 μmol/kg) on days 10, 13, 17, and 20 post arthritis induction. The animals in the healthy and arthritis control groups were left untreated. The arthritis scores and animal body weights were recorded three times a week (see FIG. 19A, B). At the completion of study (day 24), the rats were euthanized by CO2 asphyxiation and processed for paw and spleen weights (see FIG. 20A, B).
The rat adjuvant induced arthritis (AIA) model resembles the characteristics of RA in humans and has been widely used to study the impact of novel anti-inflammatory agents.

[3] = Plasma pharmacokinetics after a single i.v. or s.c. dose of EC0565; conditions: rats
Method: The bioavailability of EC0565 after subcutaneous injection was measured. Female Lewis rats with rounded tip jugular vein catheters (Harlan) were fed regular rodent diet. The treated animals were given a single intravenous or subcutaneous dose of EC0565 at 2 μmol/kg. […] For subcutaneous administration (FIG. 52B), whole blood samples (300 μl) were collected from the animals at 1 min, 10 min, 30 min, 1 h, 2 h, 3 h, 4 h, 8 h, and 12 h post injection. The blood samples were placed into anti-coagulant tubes containing 1.7 mg/mL of K3-EDTA and 0.35 mg/mL of N-maleoyl-beta-alanine (0.35 mg/mL). Plasma samples were obtained by centrifugation for 3 min at ˜2,000 g and stored at −80° C. The amount of EC0565 and its released base drug (everolimus) were determined by HPLC using the EC0565 injection solution as the standard.

DHFR = molecular target: T1, DHFR (Mus musculus, UniProt P00375); test: DHFR activity in lysate of treated RAW264.7 cells; assay type: cell-based, murine; conditions: excess folic acid alone, 10 μM
T1 construct: endogenous in cells; host or cells: RAW264.7 cells
T1 sequence (P00375 1-187): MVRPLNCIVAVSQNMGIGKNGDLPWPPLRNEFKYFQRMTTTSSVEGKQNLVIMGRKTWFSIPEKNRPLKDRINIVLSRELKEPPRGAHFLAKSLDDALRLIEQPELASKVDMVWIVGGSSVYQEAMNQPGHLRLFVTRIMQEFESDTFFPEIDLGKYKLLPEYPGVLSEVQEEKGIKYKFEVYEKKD
Method: RAW264.7 cells were treated with vehicle (medium), EC0746 (100 nM) without or with 100-fold excess free folate, aminopterin (AMT, 100 nM), methotrexate (MTX, 100 nM), or excess free folate alone (10 μM). After 1 h incubation, the drug-containing media were replaced with fresh medium and the cells were allowed to incubate further for 24 h. At the end of incubation, the cells were lysed and the DHFR activity in cell lysates was measured using a commercial DHFR assay kit (Sigma-Aldrich, Saint Louis, Mo.).

[4] = oral everolimus 500 nmol/kg tiw

Q: Which “effect on PCNA in synchronized RAW264.7 cells” value [1] does the source give for `CO[C@H]1C[C@@H]2CC[C@@H](C)[C@@](O)(O2)C(=O)C(=O)N2CCCC[C@H]2C(=O)O[C@H]([C@H](C)C[C@@H]2CC[C@@H](OCCO)[C@H](OC)C2)CC(=O)[C@H](C)/C=C(\C)[C@@H](O)[C@@H](OC)C(=O)[C@H](C)C[C@H](C)/C=C/C=C/C=C/1C` [everolimus] here?
A: Its value is “inhibited PCNA activities”.

Q: What about the “spleen weight compared to arthritic controls” value ([2]; 500 nmol/kg 3 times a week, EC0565 sc, everolimus oral) of the same compound?
A: Its value is “significantly decreased spleen weight compared to arthritic controls”.

Q: And the “decrease in dorsal to ventral paw thickness” value [2, 4]?
A: Its value is 44%.

Q: What about the “decrease in summed histological score” value [2, 4] of the same compound?
A: The value was 52%.

Q: And the “reductions in all scored histology parameters vs untreated controls” value [2, 4]?
A: The value was 44-61%.

Q: What does the source list for `CO[C@H]1C[C@@H]2CC[C@@H](C)[C@@](O)(O2)C(=O)C(=O)N2CCCC[C@H]2C(=O)O[C@H]([C@H](C)C[C@@H]2CC[C@@H](OCCOC(=O)OCCSSC[C@H](NC(=O)[C@H](CCC(=O)NC[C@H](O)[C@@H](O)[C@H](O)[C@H](O)CO)NC(=O)[C@H](CCC(=O)O)NC(=O)[C@H](CCC(=O)NC[C@H](O)[C@@H](O)[C@H](O)[C@H](O)CO)NC(=O)[C@H](CCC(=O)O)NC(=O)[C@H](CCC(=O)NC[C@H](O)[C@@H](O)[C@H](O)[C@H](O)CO)NC(=O)CC[C@H](NC(=O)c3ccc(NCc4cnc5nc(N)[nH]c(=O)c5n4)cc3)C(=O)O)C(=O)O)[C@H](OC)C2)CC(=O)[C@H](C)/C=C(\C)[C@@H](O)[C@@H](OC)C(=O)[C@H](C)C[C@H](C)/C=C/C=C/C=C/1C` [EC0565, Everolimus-EC0488 Conjugate]?
A: free drug (everolimus) exposure/release in plasma, based on AUC ([3]; single intravenous dose of EC0565, 2 μmol/kg): approximately 18%; free drug (everolimus) exposure/release in plasma, based on AUC ([3]; single subcutaneous dose of EC0565, 2 μmol/kg): ~17%

Q: With `Nc1nc2ncc(CNc3ccc(C(=O)N[C@@H](CCC(=O)O)C(=O)O)cc3)nc2c(=O)[nH]1` [folic acid] as the compound, how does the “effect on DHFR activity in RAW264.7 cells” value (DHFR) read?
A: Its value is “did not have any impact”.
